According to patent US20140309192A1, “MODULATORS OF THE G PROTEIN-COUPLED MAS RECEPTOR AND THE TREATMENT OF DISORDERS RELATED THERETO” (ARENA PHARMACEUTICALS, INC., priority 2011, published 2014):
“Also recorded” adds a separate entry of the source.

Legend:
[1] = system: isolated perfused rat hearts; test: Ex vivo coronary flow, Langendorff perfused isolated rat hearts; settings: AR234960 1 μM
Protocol: Coronary flow was measured in male Mas^−/− and Mas^+/+ mice, and in male Sprague-Dawley rats using Langendorff perfused isolated hearts. Freshly isolated hearts were placed on a Langendorff apparatus (Harvard Apparatus) and perfused at a constant pressure of 80 mmHg with a modified Krebs-Henseleit buffer solution (Sigma K3753) and aerated with 95% oxygen and 5% carbon dioxide, pH 7.35-7.4. The temperature was maintained at 37° C. by surrounding the heart with a water-heated glassware chamber. Coronary flow was measured using a flow measurement system (Harvard Apparatus) which included the transit time flow meter and a flow probe built into an adaptor block located at the perfusate inflow port. Data were recorded continuously using an ISOHEART data acquisition system (Harvard Apparatus). After a 20-min equilibration period, Mas compounds were added to the perfusion buffer reservoir at the desired concentration (agonist AR234960 at 1 μM, or inverse agonist AR244555 at 5 μM) and coronary flow was recorded for 10 min
To determine the role of the Mas-Gq-PLC pathway in regulating coronary flow, the Mas inverse agonist AR244555 (5 μM) or the PLC inhibitor U-73122 (0.5 μM) was added to the perfusion buffer for 10 min and then the agonist AR234960 (1 μM) was added to the perfusion buffer. Coronary flow was recorded for another 10 min Changes in coronary flow induced by AR234960 were calculated as percentage of the coronary flow at 10 min following AR234960 treatment, relative to the coronary flow measured immediately prior to addition of AR234960. This protocol allowed for measurement of agonist mediated vasoconstrictor activity, and accounted for changes in baseline coronary flow due to inverse agonist treatment alone.
To determine whether Mas agonist-induced changes in coronary flow were endothelium-dependent, the responses in Langendorff perfused hearts were measured after chemical removal of endothelium with sodium deoxycholate. After a 20-min equilibration period, sodium deoxycholate was added to the perfusion buffer at 0.2 mg/mL for 3 min and then washed out for 10 min Mas compounds were added and coronary flow was recorded for 10 min Adenosine (1 μM), a coronary vasodilator that targets the endothelium, was used as a control to verify effective removal of endothelium.

[2] = system: isolated perfused rat hearts; test: Global ischemia-reperfusion in Langendorff perfused rat hearts (coronary flow, arrhythmias)
Protocol: For ischemia-reperfusion experiments, Langendorff perfused rat hearts were equilibrated for 20 min and then baseline coronary flow was recorded for 10 min Thereafter, all hearts were subjected to 30 min of global ischemia by stopping perfusate flow, followed by 30 min of reperfusion with either vehicle (0.01% DMSO), Mas agonist AR234960 (1 μM) or Mas inverse agonist AR244555 (5 μM) added to the perfusion buffer. Electrocardiography was also continuously recorded during the observation period through electrodes attached directly to the surface of the ventricles to detect cardiac arrhythmias during reperfusion.

## COc1cc([N+](=O)[O-])ccc1S(=O)(=O)N1CC(CN2CCN(c3ccccn3)CC2)C(c2cccc(F)c2)C1 (stereo not shown) [AR234960]
[1]; AR244555 5 μM, 10 min
  coronary flow in isolated perfused rat hearts: decrease in coronary flow; also recorded: significantly decreased
[1]; after sodium deoxycholate, adenosine 1 μM
  compound-mediated change in coronary flow in endothelium denuded hearts: preserved
[2]; 1 μM, three out of seven hearts
  frequency of prolonged ventricular arrhythmias during reperfusion: 42.9%
[2]; 30 min global ischemia, 30 min reperfusion, AR234960 1 μM, AR244555 5 μM in perfusate during reperfusion
  coronary flow during reperfusion compared to vehicle treated hearts: trend toward decreased coronary flow
